Earlier results on two compounds are cited in US6455574B1, “Therapeutic combination” (Pfizer Inc., priority 1997, dated 2002).

SMILES strings stand for the structures.

One data set deals with calcium channel. The following applies: see International Patent Application Number PCT/EP94/02697.
Data set [1] relates to smooth muscle cell migration. The following applies: see International Patent Application Number PCT/EP95/00847.

For `CCOC(=O)C1=C(COCCN)NC(C)=C(C(=O)OC)[C@H]1c1ccccc1Cl` (single isomer, unassigned) [R(+) isomer], the “calcium channel blocking activity” value with calcium channel is recorded as “little or no”. Further, the “inhibition of smooth muscle cell migration” value in data set [1] was “potent inhibitor”.

For `CCOC(=O)C1=C(COCCN)NC(C)=C(C(=O)OC)[C@@H]1c1ccccc1Cl` (single isomer, unassigned) [S(−) isomer], in the data set with calcium channel, the “calcium channel blocking activity” value is reported as “substantially confined to the S(−) isomer”.
